We go through three compounds from ChEMBL document CHEMBL1152205, “Dihydropyrazolopyrimidine inhibitors of K(V)1.5 (I(Kur))” (Bioorg Med Chem Lett, 2008).

Series [1] can be described thus: Selectivity of human Kv1.5 channel over L-type calcium channel ICa.
Series [2] can be described thus: Inhibition of potassium channel IK1 at 10 uM.
The species entered for series [3] is Homo sapiens. Description: Selectivity of human Kv1.5 channel over human ERG.
Series [4] addresses T1, Potassium voltage-gated channel subfamily A member 5 (Homo sapiens, UniProt P22460). Description: Inhibition of human Kv1.5 channel expressed in Xenopus oocytes at 3 uM by EP voltage clamp technique. In kind it is cell-based. Conditions: Oocyte.
Series [5] is described as follows: Inhibition of potassium channel IKs at 10 uM.
A short description of series [6]: Inhibition of sodium channel INa at 10 uM by patch clamp technique. Background: Patch clamp records ionic current or voltage across a cell membrane.
Series [7] addresses T1, Potassium voltage-gated channel subfamily A member 5. Description: Inhibition of human Kv1.5 channel expressed in mouse L929 cells by EP voltage clamp technique. In kind it is cell-based.
The nature of series [8]: Selectivity of human Kv1.5 channel over potassium channel IK1.
Series [9] is described as follows: Selectivity of human Kv1.5 channel over sodium channel INa.
Series [10] in a line: Inhibition of L-type calcium channel ICa at 10 uM.
Series [11] is described as follows: Selectivity of human Kv1.5 channel over potassium channel IKs.
For series [12], the target named is hERG (KCNH2) (Homo sapiens, UniProt Q12809). Description: Inhibition of human ERG at 10 uM.
hERG (KCNH2), sequence (Q12809 whole entry): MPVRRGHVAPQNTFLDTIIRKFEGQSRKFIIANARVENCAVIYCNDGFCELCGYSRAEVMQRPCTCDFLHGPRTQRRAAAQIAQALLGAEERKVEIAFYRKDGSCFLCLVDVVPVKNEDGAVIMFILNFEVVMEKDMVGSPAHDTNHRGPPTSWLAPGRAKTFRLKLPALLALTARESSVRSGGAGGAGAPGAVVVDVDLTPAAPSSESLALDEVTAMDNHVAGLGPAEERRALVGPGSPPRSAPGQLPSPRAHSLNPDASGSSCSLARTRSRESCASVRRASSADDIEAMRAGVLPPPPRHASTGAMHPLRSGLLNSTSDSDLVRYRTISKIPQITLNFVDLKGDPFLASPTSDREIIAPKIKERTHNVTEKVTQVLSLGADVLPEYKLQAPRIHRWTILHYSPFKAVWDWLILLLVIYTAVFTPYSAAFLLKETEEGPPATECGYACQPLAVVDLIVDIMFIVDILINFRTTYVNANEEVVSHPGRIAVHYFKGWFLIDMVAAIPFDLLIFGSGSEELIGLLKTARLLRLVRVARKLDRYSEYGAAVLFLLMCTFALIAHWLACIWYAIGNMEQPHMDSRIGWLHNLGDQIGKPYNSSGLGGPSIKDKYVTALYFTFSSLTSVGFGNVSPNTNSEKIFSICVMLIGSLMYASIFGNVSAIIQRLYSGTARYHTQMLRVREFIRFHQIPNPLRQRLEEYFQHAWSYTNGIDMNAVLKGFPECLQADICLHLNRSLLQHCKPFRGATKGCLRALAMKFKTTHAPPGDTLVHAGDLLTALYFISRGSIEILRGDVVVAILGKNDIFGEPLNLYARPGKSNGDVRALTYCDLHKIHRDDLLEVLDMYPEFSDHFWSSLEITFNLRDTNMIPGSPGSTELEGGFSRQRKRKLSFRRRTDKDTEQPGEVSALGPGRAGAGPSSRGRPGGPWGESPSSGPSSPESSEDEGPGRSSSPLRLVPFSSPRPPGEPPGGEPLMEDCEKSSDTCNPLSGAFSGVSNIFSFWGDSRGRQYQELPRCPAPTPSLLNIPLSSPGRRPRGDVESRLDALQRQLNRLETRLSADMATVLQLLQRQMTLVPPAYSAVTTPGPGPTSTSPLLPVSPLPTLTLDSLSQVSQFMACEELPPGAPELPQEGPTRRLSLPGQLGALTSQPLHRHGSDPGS
The target in series [13] is T1, Potassium voltage-gated channel subfamily A member 5. Description: Inhibition of human Kv1.5 channel expressed in mouse L929 cells at 1 uM by EP voltage clamp technique. In kind it is cell-based.

T1 sequence (P22460 whole entry): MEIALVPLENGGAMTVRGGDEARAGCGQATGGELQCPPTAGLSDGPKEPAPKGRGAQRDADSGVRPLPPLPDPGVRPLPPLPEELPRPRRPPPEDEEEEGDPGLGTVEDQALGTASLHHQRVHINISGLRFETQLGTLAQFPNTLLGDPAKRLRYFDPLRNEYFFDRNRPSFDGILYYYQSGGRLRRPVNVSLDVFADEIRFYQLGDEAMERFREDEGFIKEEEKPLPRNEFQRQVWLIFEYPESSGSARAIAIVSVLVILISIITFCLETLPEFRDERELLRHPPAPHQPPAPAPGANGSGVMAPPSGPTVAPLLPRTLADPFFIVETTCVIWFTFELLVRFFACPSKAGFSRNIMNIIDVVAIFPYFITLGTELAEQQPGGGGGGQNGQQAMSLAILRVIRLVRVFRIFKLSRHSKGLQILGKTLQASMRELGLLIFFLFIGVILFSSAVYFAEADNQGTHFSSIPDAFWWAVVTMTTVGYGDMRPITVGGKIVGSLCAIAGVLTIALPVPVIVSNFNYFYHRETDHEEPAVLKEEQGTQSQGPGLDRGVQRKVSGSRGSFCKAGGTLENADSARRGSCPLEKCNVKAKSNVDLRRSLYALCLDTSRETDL

Broadly, the inhibition is the relative decrease from the control value, in per cent. For orientation: IC50 means the point on the concentration scale where inhibition reaches its midpoint. Read a high IC50 as weaker potency in that assay. As for `CC1=C(C(=O)N2CCN(c3ccc(F)cc3)CC2)[C@@H](c2ccc(Cl)c(Cl)c2)n2nccc2N1`, the fold change (FC) in [1], in series [3], in series [8], in series [9] and in series [11] was above 50 each time. The inhibition amounted to 3% in series [2]; 72% in [4]; 21% in series [5]; 42% in [6]; 59% in [10]. In series [7], this compound yielded an IC50 of 70 nM. For the same compound, in series [12], the inhibition at 10 µM turned out to be 69%.
`CC1=C(C(=O)N2CCN(c3ccc(F)cc3)CC2)C(c2ccccc2C)n2nccc2N1` (stereo unspecified): the inhibition in series [4] amounted to 37%; in [13], 48%.
Turning to `CC1=C(C(=O)N2CCN(c3ccc(F)cc3)CC2)[C@@H](c2cccc(Cl)c2Cl)n2nccc2N1`, the fold change (FC) in series [1], in series [3], in series [8], in [9] and in series [11] was above 50 in each case. Also, the inhibition came out at 1% in series [2]; 67% in series [4]; 7% in series [5]; 14% in [6]; 55% in series [10]. Also, the IC50 in series [7] worked out at 160 nM. The same compound came in with an inhibition at 10 µM in series [12] of 41%.
